How the values were obtained:
[1] = Equilibrium adsorption isotherms of BPA on inactivated sludge (Freundlich, Langmuir); assay type: physicochemical
Protocol: To elucidate the plausible mechanisms of the biological removal of the bisphenol compounds, the removal of BPA was tested (adsorption on the biomass versus biological oxidation), and additional experiments are carried out in Erlenmeyer shake flasks containing either activated sludge or inactivated sludge in the presence of BPA. The sludge used for the tests is withdrawn from the SMBR unit. Prior to BPA addition in activated sludge sample, sludge is initially centrifuged at 8000 rpm at 4° C. for 10 min and softly washed. The inactivated sludge is prepared by subjecting sludge samples to a sterilization by adding 1.0 mL HgSO4 (20 g/L) to 200 mL of sludge. Then, the sterilized and centrifuged sample sludge is placed in conical flasks and shaken at 150 rpm at 22±2° C. for 2 h, and then centrifuged at 8000 rpm at 4° C. for 10 min. Different concentrations of BPA (0.45 to 18.2 mg/L) are added in the same mass of sludge (3.0 g of sludge diluted to 200 mL with milli-Q water). The concentration of total suspended solid (sludge) in the flask was 15 g TSS L^−1, which is similar to that observed in the SMBR system of the present invention. Three types of experiments are successively carried out. The first set tests consists in evaluating the adsorption capacity of BPA on sludge. For that, two Erlenmeyer shake flasks containing 200 mL of activated sludge (15 g TSS L^−1) are respectively contaminated by 5 and 10 mg/L of BPA. The flasks are shaken at 150 rpm at 22±2° C., pH=7±0.5 for 24 h and samples are taken in regular time intervals, and the amount of BPA adsorbed is determined by measuring the residual BPA concentrations in solution The same assay is carried out using inactivated sludge. Subsequently, isotherm adsorption experiments are carried out using different concentrations of BPA (0.45-18.2 mg/L) spiked in a same mass of sludge (200 ml of inactivated sludge at 15 g TSS/L). The flasks are shaken at 150 rpm for 2 h and samples are taken for analysis.
By analogy, the amount of BPA adsorbed on sludge at equilibrium (qe, mg/g) and the sorption efficiency is determined according to equations (1) described above. The specific adsorption coefficient (KD) can also be calculated. The coefficient KD is the ratio between the amount of BPA adsorbed on sludge at equilibrium (qe) and the residual (Ce) concentrations, according to the following equation (Eq. (3)): […]
Thermodynamic equilibrium constants are determined in order to evaluate adsorption affinity of BPA on sludge. The amount of BPA adsorbed on sludge is calculated using the following equation (Eq. (10)): […]
Adsorption isotherms allow presenting the variation of sorption with respect to the concentration of sorbate in the bulk solution at constant temperature. Equilibrium adsorptions of BPA on the biomass using Freundlich and Langmuir models are studied. These isotherms describe BPA uptake per unit weight of sorbent (qe) in function of the equilibrium sorbate concentration in the bulk solution (Ce). The Freundlich isotherm is described by the following equation (Eq. (11)) and is illustrated in FIG. 12: […]
The Langmuir isotherm is described by the following equation (Eq. (12)) and is represented in FIG. 13: […]
In fact, Langmuir adsorption isotherm is valid for monolayer sorption on a surface containing a limited number of sites, predicting a homogenous distribution of sorption energy. The reorganization of Eq. (12) leads to the following equation (Eq. (13)) as the linearised form of the Langmuir isotherm: […]
From Langmuir isotherm, it is possible to define a dimensionless constant (RL) taking into account the separation factor of equilibrium parameter. This dimensionless constant allows predicting if the adsorption system is favorable or not, as explained in Shokoohi et al. as cited above and by Gao et al. Journal of Fluorine Chemistry 130 (2009) 1035-1041. RL can be evaluated using the following equation (Eq. (14)): […]

[2] = Thermodynamic parameters of BPA adsorption on inactivated sludge; assay type: physicochemical
Protocol: The third set of assays consisted of evaluating the thermodynamic parameters such as Gibbs free energy)(ΔG^0), enthalpy)(ΔH^0 and entropy)(ΔS^0 changes, which parameters allowed to determine whether BPA sorption on sludge was due to physisorption or chemisorption phenomenon or the combination of both phenomena. For that, Erlenmeyer flasks containing 200 mL of inactivated sludge at 15 g TSS L^−1 and 5 mgL^−1 of BPA are used. Mixing is achieved at 150 rpm and different temperatures (22±2, 30±2 and 40±2° C.) are respectively imposed for 2 h of experiment time.
In order to calculate whether the adsorption process is spontaneous or not, thermodynamics parameters including standard Gibbs free energy of adsorption (ΔadG^0), standard enthalpy of adsorption (ΔadH^0) and standard entropy change of) adsorption (ΔadS^0) have been considered. ΔadG^0 is calculated using the following equation (Eq. (22)): ΔadG^0=−RT ln Kd (22)
T is the temperature (K), and KD is the specific adsorption coefficient (equilibrium distribution coefficient). Relation between ΔadG^0, ΔH^0 and ΔadS^0 is expressed by the following equation (Eq. (23)): ΔadG^0=ΔadH^0−TΔadS^0 (23)
wherein ΔadH^0, ΔadS^0 are calculated from the slope and intercept of the plot of ln KD versus 1/T, respectively.
The adsorption tests are conducted at different temperatures ranging from 293 K to 313 K. At each temperature, the corresponding KD at fixed initial concentration of BPA is calculated and the corresponding Gibbs free energy change is deducted according to Eq. (22).

aquatic ecosystems = settings: Oehlmann et al.; cited from earlier work

CC(C)(c1ccc(O)cc1)c1ccc(O)cc1 [BPA, 2,2-Bis(4-hydroxyphenyl)propane]
Freundlich parameter shown as formula MATH:00015 [1]: 0.819 | KL (Langmuir constant) [1]: 0.370 L/g | RL (dimensionless separation factor, Langmuir) [1]: 0.11 | b (Langmuir constant) [1]: 0.444 L/mg | kf (Freundlich isotherm constant) [1]: 0.231 mg^1-1/n g^−1 · L^1/n | n (Freundlich constant, adsorption intensity) [1]: 1.22 | qm, maximum BPA concentration capable of being adsorbed on sludge (Langmuir, KL/b) [1]: 0.833 mg/g | Adsorbed fraction ([1]; C0 0.45 mg/L): 84.4% | Equilibrium liquid phase concentration of BPA (Ce) ([1]; C0 0.45 mg/L): 0.07 mg/L | Adsorbed fraction ([1]; C0 0.91 mg/L): 85.7% | Equilibrium liquid phase concentration of BPA (Ce) ([1]; C0 0.91 mg/L): 0.13 mg/L | Adsorbed fraction ([1]; C0 1.82 mg/L): 78.6% | Equilibrium liquid phase concentration of BPA (Ce) ([1]; C0 1.82 mg/L): 0.39 mg/L | Adsorbed fraction ([1]; C0 4.74 mg/L): 77.0% | Equilibrium liquid phase concentration of BPA (Ce) ([1]; C0 4.74 mg/L): 1.09 mg/L | Adsorbed fraction ([1]; C0 9.47 mg/L): 76.0% | Equilibrium liquid phase concentration of BPA (Ce) ([1]; C0 9.47 mg/L): 2.27 mg/L | Adsorbed fraction ([1]; C0 13.67 mg/L): 74.8% | Equilibrium liquid phase concentration of BPA (Ce) ([1]; C0 13.67 mg/L): 3.45 mg/L | Adsorbed fraction ([1]; C0 18.22 mg/L): 70.5% | Equilibrium liquid phase concentration of BPA (Ce) ([1]; C0 18.22 mg/L): 5.37 mg/L | Adsorption removal of BPA on sludge ([1]; of initial liquid phase concentration, 0.45-18.2 mg/L): 70.5 to 85.7% | ΔadH^0 ([2]; 293-313 K): −82.121 KJmol^−1 | ΔadS^0 ([2]; 293-313 K): −0.257 KJmol^−1K^−1 | ΔadG^0 ([2]; 293 K): -1.72 kcal/mol | ΔadG^0 ([2]; 303 K): -0.7216 kcal/mol | ΔadG^0 ([2]; 313 K): -0.5067 kcal/mol | Concentration of BPA with adverse effects in aquatic ecosystems (aquatic ecosystems): below 1.0 μg/L

From patent publication US9199200B2, “Submerged membrane bioreactor system and biological methods for removing bisphenol compounds from municipal wastewater” (Centre de Recherche Industrielle de Québec (CRIQ), priority 2010, dated 2015)
